How the values were obtained:
[1] = system: human neuronal calcium channel α1D (SEQ ID No. 1), α2 (SEQ ID No. 11) and β1 (SEQ ID No. 9) subunits, expressed in HEK 293 cells; experiment: Whole-cell patch clamp of barium currents in transiently transfected HEK 293 cells; format: cell-based; conditions: 1 µM Bay K 8644
Protocol: Pflugers Arch. 391:85-100].
Two days after transient transfection of HEK 293 cells with α1, α2 and β1 subunit-encoding cDNA and the lacZ gene, individual transfectants were assayed for voltage-dependent barium currents. The currents in nine transfectants were recorded.

[2] = system: human neuronal calcium channel α1D (SEQ ID No. 1), α2 (SEQ ID No. 11) and β1 (SEQ ID No. 9) subunits, stably expressed in HEK 293 cells; experiment: Whole-cell patch clamp of barium currents in stably transfected HEK 293 cells; conditions: Bay K 8644 1 µM
[3] = system: human neuronal calcium channel α1D and α2 subunits, expressed in Xenopus laevis oöcytes; experiment: Two-electrode voltage clamp of barium currents in Xenopus laevis oöcytes injected with α1D and α2 transcripts; format: cell-based; conditions: Bay K 8644; very small currents (15-30 nA); holding potential -90 mV
Text: Plasmids pVDCC III.RBS(A), containing of pcDNA1 and the α1D cDNA that begins with a ribosome binding site and the eighth ATG codon of the coding sequence (see Example III.A.3.d), plasmid pHBCaCHα1A containing of pcDNA1 and an α2 subunit cDNA (see Example IV), and plasmid pHBCaCHβ1bRBS (A) containing pcDNA1 and the β1 DNA lacking intron sequence and containing a ribosome binding site (see Example III), were linearized by restriction digestion. The α1D cDNA- and α2 subunit-encoding plasmids were digested with XhoI, and the β1 subunit-encoding plasmid was digested with EcoRV. The DNA insert was transcribed with T7 RNA polymerase.

[4] = system: human neuronal calcium channel α2 and β1 subunits, expressed in Xenopus laevis oöcytes; experiment: Two-electrode voltage clamp of barium currents in Xenopus laevis oöcytes injected with α2 and β1 transcripts (no α1D; comparison); format: cell-based; conditions: Bay K 8644; n=11

SMILES: COC(=O)C1=C(C)NC(C)=C([N+](=O)[O-])C1c1ccccc1C(F)(F)F (stereo not drawn) [Bay K 8644]
- effect on inward barium current ([1]; holding potential -90 mV, 15 mM Ba2+ bath, one transfectant): significantly enhanced in magnitude
- largest inward barium current in the presence of the compound ([1]; membrane depolarized to 0 mV from holding potential -90 mV): -160 pA
- barium current during application of the compound ([2]; depolarized to -10 mV from holding potential -90 mV, approximately 35pA in its absence): approximately 75 pA
- shift of the current-voltage relation ([2]; same cell, series of depolarizing voltages): about -10 mV
- response of barium currents to the compound [3]: little or no response
- sensitivity of inward barium currents to the compound [4]: insensitive

Reference: patent EP1469074B1, “Human calcium channel compositions and methods” (priority 1991, dated 1993)
